From paper PMC6913647, “Novel sulphonamides incorporating triazene moieties show powerful carbonic anhydrase I and II inhibitory properties” (Journal of Enzyme Inhibition and Medicinal Chemistry, 2019)
Where two headings read alike, the source gives them in different places.

Assays:
[1] = target: T1, hCA I (Homo sapiens, UniProt P00915); experiment: esterase inhibition assay; type: biochemical
T1 construct: gene CA1; native enzyme purified from human blood; cytosolic isoform
Text: esterase inhibition assay on hCA I

[2] = target: T2, hCA II (Homo sapiens, UniProt P00918); experiment: esterase inhibition assay; type: biochemical
T2 construct: gene CA2; native enzyme purified from human blood; cytosolic isoform
Text: esterase inhibition assay on hCA II

[3] = substrate 4-nitrophenyl acetate

T1 sequence (P00915 2-261): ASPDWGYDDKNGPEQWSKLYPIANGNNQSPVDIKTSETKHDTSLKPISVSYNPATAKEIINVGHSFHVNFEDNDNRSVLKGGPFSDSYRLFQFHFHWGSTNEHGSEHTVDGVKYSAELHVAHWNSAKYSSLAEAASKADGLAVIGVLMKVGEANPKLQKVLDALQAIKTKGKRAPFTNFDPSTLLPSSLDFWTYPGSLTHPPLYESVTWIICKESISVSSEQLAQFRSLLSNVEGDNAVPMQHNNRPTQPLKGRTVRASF

Structure (SMILES)	Ki [1] [nM]	Ki [2] [nM]	Ki [1, 3] [nM]	Ki [2, 3] [nM]
NS(=O)(=O)c1cccc(N=NNc2ccc(F)cc2)c1 [compound 2, 3-(3-(4-Fluorophenyl)triaz-1-en-1-yl) benzenesulfonamide]		21 ± 9	21 ± 4	
NS(=O)(=O)c1cccc(N=NNc2ccc(Br)cc2)c1 [compound 3, 3-(3-(4-Bromophenyl)triaz-1-en-1-yl) benzenesulfonamide]	57 ± 3	19 ± 4		
CCc1ccc(NN=Nc2cccc(S(N)(=O)=O)c2)cc1 [compound 6, 3-(3-(4-Ethylphenyl)triaz-1-en-1-yl) benzenesulfonamide]	49 ± 2	16 ± 2		
NS(=O)(=O)c1cccc(N=NNc2cccc(Cl)c2)c1 [compound 7, 3-(3-(3-Chlorophenyl)triaz-1-en-1-yl) benzenesulfonamide]	53 ± 15	22 ± 6		
NS(=O)(=O)c1cccc(N=NNc2ccccc2F)c1 [compound 11, 3-(3-(2-Fluorophenyl)triaz-1-en-1-yl) benzenesulfonamide]	72 ± 2	33 ± 9		
NS(=O)(=O)c1cccc(N=NNc2ccccc2Br)c1 [compound 12, 3-(3-(2-Bromophenyl)triaz-1-en-1-yl) benzenesulfonamide]	61 ± 1	40 ± 2		

More lines, in order of falling Ki [1], values ahead:

Ki [1] [nM]	Ki [2] [nM]	Ki [1, 3] [nM]	Ki [2, 3] [nM]	Structure (SMILES)
46 ± 12	20 ± 5			NS(=O)(=O)c1cccc(N=NNc2ccccc2Cl)c1 [compound 10, 3-(3-(2-Chlorophenyl)triaz-1-en-1-yl) benzenesulfonamide]
42 ± 8	21 ± 4			COc1ccc(/N=N/Nc2cccc(S(N)(=O)=O)c2)cc1 [compound 5, 3-(3-(4-Methoxyphenyl)triaz-1-en-1-yl) benzenesulfonamide]
38 ± 4			16 ± 6	CCOc1ccc(NN=Nc2cccc(S(N)(=O)=O)c2)cc1 [compound 4, 3-(3-(4-Ethoxyphenyl)triaz-1-en-1-yl) benzenesulfonamide]
36 ± 3	28 ± 6			NS(=O)(=O)c1cccc(N=NNc2cccc(F)c2)c1 [compound 8, 3-(3-(3-Fluorophenyl)triaz-1-en-1-yl) benzenesulfonamide]
33 ± 5	23 ± 2			COc1cccc(NN=Nc2cccc(S(N)(=O)=O)c2)c1 [compound 9, 3-(3-(3-Methoxyphenyl)triaz-1-en-1-yl) benzenesulfonamide]
28 ± 6	18 ± 5			NS(=O)(=O)c1cccc(N=NNc2ccccc2)c1 [compound 1, 3–(3-Pheynltriaz-1-en-1-yl)benzenesulfonamide]
